Experiments:
[1] = system: PHBPU; test: Post-emergence herbicidal effect, greenhouse pot test; assay type: in vivo, Ipomoea purpurea; details: Ipomoea purpurea, 504 h, read-out: Post-emergence effect against PHBPU in %
Outline: (§1)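 Greenhouse pot plants in sandy loam receive a one-leaf-stage spray at 20 to 320 g/ha. Activity is assessed visually around 3 weeks afterwards on a 0–100% scale, where 100% means the plants have died.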

[2] = system: ALOMY; test: as above; assay type: in vivo, Alopecurus myosuroides; details: Alopecurus myosuroides, 504 h, visual rating about 3 weeks after treatment, read-out: Post-emergence effect against ALOMY
Outline: as §1

[3] = system: SETVI; test: as above; assay type: in vivo, Setaria viridis; details: Setaria viridis, 504 h, read-out: Post-emergence effect against SETVI in %
Outline: as §1

[4] = system: AVEFA; test: as above; assay type: in vivo, Avena fatua; details: Avena fatua, 504 h, visual rating about 3 weeks after treatment, read-out: Post-emergence effect against AVEFA
Outline: as §1

[5] = system: AMARE; test: as above; assay type: in vivo, Amaranthus retroflexus; details: Amaranthus retroflexus, 504 h, 320 g/ha, visual rating about 3 weeks after treatment, read-out: Post-emergence effect against AMARE
Outline: as §1

[6] = system: VERPE; test: as above; assay type: in vivo, Veronica persica; details: Veronica persica, 504 h, read-out: Post-emergence effect against VERPE in %
Outline: as §1

[7] = system: KCHSC; test: as above; assay type: in vivo; details: for pest or weed control at 80 g/ha / pest or weed control at 320 g/ha: 504 h, read-out: Post-emergence effect against KCHSC in %
Outline: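 Greenhouse plants in sandy loam, sprayed post-emergence at the one-leaf stage (2–3 weeks after sowing) with WP or EC formulations in water plus 0.5% additive at 600 l/ha. Rates 20 to 320 g/ha. Activity rated visually after about 3 weeks against untreated controls (0% like control, 100% dead).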

[8] = system: POLCO; test: as above; assay type: in vivo, Fallopia convolvulus; details: Fallopia convolvulus, 504 h, read-out: Post-emergence effect against POLCO in %
Outline: as §1

[9] = system: ABUTH; test: as above; assay type: in vivo, Abutilon theophrasti; details: Abutilon theophrasti, 504 h, visual rating about 3 weeks after treatment, read-out: Post-emergence effect against ABUTH
Outline: as §1

[10] = system: VIOTR; test: as above; assay type: in vivo, Viola tricolor; details: Viola tricolor, 504 h, read-out: Post-emergence effect against VIOTR in %
Outline: as §1

[11] = system: LOLRI; test: as above; assay type: in vivo, Lolium rigidum; details: Lolium rigidum, 504 h, read-out: Post-emergence effect against LOLRI in %
Outline: as §1

[12] = system: MATIN; test: as above; assay type: in vivo, Tripleurospermum inodorum; details: Tripleurospermum inodorum, 504 h, read-out: Post-emergence effect against MATIN in %
Outline: as §1

[13] = system: ECHCG; test: as above; assay type: in vivo, Echinochloa crus-galli; details: Echinochloa crus-galli, 504 h; for pest or weed control at 320 g/ha / pest or weed control at 80 g/ha: read-out: Post-emergence effect against ECHCG in %
Outline: as §1

[14] = system: ZEAMX; test: Post-emergence herbicidal effect and crop plant compatibility, greenhouse pot test; assay type: in vivo, Zea mays; details: Zea mays, 504 h, one-leaf stage, rated visually after about 3 weeks vs untreated controls; for plant injury at 20 g/ha: read-out: Post-emergence effect at 20 g/ha against ZEAMX in %
Outline: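 Greenhouse pot test: weeds and crops sown in sandy loam, sprayed post-emergence at one-leaf stage (2–3 weeks after sowing) with WP or EC formulations plus 0.5% additive at 600 l/ha water, rates 20–320 g/ha. Visual rating about 3 weeks later versus untreated controls (100% = dead, 0% = as control).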

[15] = system: DIGSA; test: Post-emergence herbicidal effect, greenhouse pot test; assay type: in vivo, Digitaria sanguinalis; details: Digitaria sanguinalis, 504 h, visual rating about 3 weeks after treatment, read-out: Post-emergence effect against DIGSA
Outline: as §1

Structure (SMILES) | pest or weed control at 80 g/ha [1] [%] | pest or weed control at 320 g/ha [1] [%] | pest or weed control at 320 g/ha [2] [%] | pest or weed control at 320 g/ha [3] [%] | pest or weed control at 80 g/ha [4] [%] | pest or weed control at 320 g/ha [4] [%] | pest or weed control at 320 g/ha [5] [%] | pest or weed control at 320 g/ha [6] [%] | pest or weed control at 80 g/ha [7] [%] | pest or weed control at 320 g/ha [7] [%] | pest or weed control at 80 g/ha [8] [%] | pest or weed control at 320 g/ha [8] [%] | pest or weed control at 80 g/ha [9] [%] | pest or weed control at 320 g/ha [9] [%] | pest or weed control at 80 g/ha [10] [%] | pest or weed control at 320 g/ha [10] [%] | pest or weed control at 320 g/ha [11] [%] | pest or weed control at 320 g/ha [12] [%] | pest or weed control at 320 g/ha [13] [%] | plant injury at 20 g/ha [14] [%] | further results
COC(=O)C(OC)Oc1nn(-c2ncccc2F)c(-c2ccc(F)nc2)c1C(F)(F)F (centres unmarked) [Example I-41, Methyl {[1-(3-fluoropyridin-2-yl)-5-(6-fluoropyridin-3-yl)-4-(trifluoromethyl)-1H-pyrazol-3-yl]oxy}(methoxy)acetate] | 90 | 90 | 90 | 90 | 80 | 90 | 90 | 90 | 80 | 90 | 90 | 90 | 90 | 90 | 80 | 90 | 90 | 80 | 90 | 0 | plant injury at 80 g/ha ([14]; 80 g/ha, read-out: Post-emergence effect at 80 g/ha against ZEAMX in %): 0%; pest or weed control at 80 g/ha [15]: 80%; pest or weed control at 320 g/ha [15]: 90%
CCOC(=O)C(OC)Oc1nn(-c2ncccc2F)c(-c2ccc(F)nc2)c1Cl (centres unmarked) [Example I-48] | 90 | 90 | 90 | 90 | 90 | 90 | 80 | 90 | 80 | 90 | 80 | 80 | 80 | 90 | 90 | 90 | 90 | 90 | 90 | 0 | pest or weed control at 80 g/ha [3]: 90%; pest or weed control at 80 g/ha [6]: 80%; pest or weed control at 20 g/ha ([8]; 20 g/ha): 80%; pest or weed control at 20 g/ha ([10]; 20 g/ha): 80%; pest or weed control at 80 g/ha ([11]; 80 g/ha): 90%; pest or weed control at 80 g/ha [12]: 80%; pest or weed control at 80 g/ha [13]: 90%; pest or weed control at 80 g/ha [15]: 80%; pest or weed control at 320 g/ha [15]: 90%
COC(Oc1nn(-c2ncccc2F)c(-c2cncc(F)c2)c1C1CC1)C(=O)O (centres unmarked) [Example I-68] | 90 | 90 | 90 | 90 | 90 | 90 | 80 | 90 | 90 | 90 | 80 | 80 | 80 | 90 | 90 | 90 | 90 | 90 | 90 | 0 | pest or weed control at 80 g/ha ([2]; 80 g/ha): 90%; pest or weed control at 80 g/ha [3]: 90%; pest or weed control at 80 g/ha [6]: 90%; Post-emergence effect against KCHSC in % ([7]; 20 g/ha): 90%; pest or weed control at 80 g/ha [12]: 80%; pest or weed control at 20 g/ha ([13]; 20 g/ha, visual rating about 3 weeks after treatment, read-out: Post-emergence effect against ECHCG): 80%; pest or weed control at 80 g/ha [13]: 90%; pest or weed control at 320 g/ha [15]: 90%

— patent publication US20240391862A1, “(1,4,5-TRISUBSTITUTED-1H-PYRAZOL-3-YL)OXY-2-ALKOXY ALKYL ACIDS AND THEIR DERIVATIVES, THEIR SALTS AND THEIR USE AS HERBICIDAL AGENTS” (Bayer AKtiengesellschaft, priority 2021, published 2024)
